# According to article PMC5218480 (PLoS ONE, 2017):
# Tested on: MV-4-11 cells
# Assay: Gene expression microarray analysis (Affymetrix PrimeView) and GSEA
# Type: cell-based, human
# Set-up: RFU PODN (11730768_x_at) / Fold change /veh PODN (11730768_x_at) / RFU LINC00158 (11744669_a_at) / Fold change /veh LINC00158 (11744669_a_at) / RFU DUSP10 (11751237_a_at) / Fold change /veh DUSP10 (11751237_a_at) / RFU ID3 (11757404_x_at) / Fold change /veh ID3 (11757404_x_at) / RFU PLEKHG5 (11737974_s_at) / Fold change /veh PLEKHG5 (11737974_s_at) / RFU LRRC4B (11730491_at) / Fold change /veh LRRC4B (11730491_at) / RFU GIMAP4 (11747438_a_at) / Fold change /veh GIMAP4 (11747438_a_at) / RFU KRT8 (11758183_x_at) / Fold change /veh KRT8 (11758183_x_at) / RFU CNN1 (11734310_a_at) / Fold change /veh CNN1 (11734310_a_at) / RFU VPS37D (11726825_at) / Fold change /veh VPS37D (11726825_at) / RFU C10orf10 (11716522_x_at) / Fold change /veh C10orf10 (11716522_x_at) / RFU KIR2DL2 /// KIR2DL4 /// KIR2DL5A /// KIR2DL5B /// KIR2DS1 /// KIR2DS2 /// KIR2DS3 /// KIR2DS4 /// KIR3DL3 /// KIR3DL3 /// KIR3DS1 (11738374_at) / Fold change /veh KIR2DL2 /// KIR2DL4 /// KIR2DL5A /// KIR2DL5B /// KIR2DS1 /// KIR2DS2 /// KIR2DS3 /// KIR2DS4 /// KIR3DL3 /// KIR3DL3 /// KIR3DS1 (11738374_at) / RFU C1QL1 (11718748_at) / Fold change /veh C1QL1 (11718748_at) / RFU TMPRSS4 (11747572_a_at) / Fold change /veh TMPRSS4 (11747572_a_at) / RFU HAMP (11756126_x_at) / Fold change /veh HAMP (11756126_x_at) / RFU RNFT2 (11725882_a_at) / Fold change /veh RNFT2 (11725882_a_at) / RFU NR4A2 (11747474_a_at) / Fold change /veh NR4A2 (11747474_a_at) / RFU ABCC12 (11746883_a_at) / Fold change /veh ABCC12 (11746883_a_at) / RFU TMEM136 (11760407_x_at) / Fold change /veh TMEM136 (11760407_x_at) / RFU CLDN22 /// WWC2 (11732394_at) / Fold change /veh CLDN22 /// WWC2 (11732394_at) / RFU HLA-DPB1 (11760878_x_at) / Fold change /veh HLA-DPB1 (11760878_x_at) / RFU SPINT1 (11716480_a_at) / Fold change /veh SPINT1 (11716480_a_at) / RFU GAP43 (11754022_s_at) / Fold change /veh GAP43 (11754022_s_at) / RFU A4GNT (11735810_at) / Fold change /veh A4GNT (11735810_at) / RFU PRB3 (11715151_x_at) / Fold change /veh PRB3 (11715151_x_at) / RFU TUBB4B (11761932_at) / Fold change /veh TUBB4B (11761932_at) / RFU CAPN14 (11732068_a_at) / Fold change /veh CAPN14 (11732068_a_at) / RFU TMCC2 (11721928_a_at) / Fold change /veh TMCC2 (11721928_a_at) / RFU IRGQ (11745062_a_at) / Fold change /veh IRGQ (11745062_a_at) / RFU FAM174B (11720279_a_at) / Fold change /veh FAM174B (11720279_a_at) / RFU TMPRSS4 (11748680_a_at) / Fold change /veh TMPRSS4 (11748680_a_at) / RFU FAM212B (11763350_a_at) / Fold change /veh FAM212B (11763350_a_at) / RFU PLEKHG5 (11743358_a_at) / Fold change /veh PLEKHG5 (11743358_a_at) / RFU ZSCAN30 (11745921_a_at) / Fold change /veh ZSCAN30 (11745921_a_at) / RFU CMKLR1 (11741424_a_at) / Fold change /veh CMKLR1 (11741424_a_at) / RFU LOC101060620 /// MAPK8IP1 (11723275_at) / Fold change /veh LOC101060620 /// MAPK8IP1 (11723275_at) / RFU SPTSSB (11747773_x_at) / Fold change /veh SPTSSB (11747773_x_at) / RFU PRSS12 (11739890_at) / Fold change /veh PRSS12 (11739890_at) / RFU BIN1 (11741810_x_at) / Fold change /veh BIN1 (11741810_x_at) / RFU WNT11 (11732464_a_at) / Fold change /veh WNT11 (11732464_a_at) / RFU C10orf10 (11716521_a_at) / Fold change /veh C10orf10 (11716521_a_at) / RFU C5orf56 (11738089_at) / Fold change /veh C5orf56 (11738089_at) / RFU CYB561 (11721691_x_at) / Fold change /veh CYB561 (11721691_x_at) / RFU ANKRD19P (11752326_a_at) / Fold change /veh ANKRD19P (11752326_a_at) / RFU OR2T12 /// OR2T33 /// OR2T8 (11738714_s_at) / Fold change /veh OR2T12 /// OR2T33 /// OR2T8 (11738714_s_at) / RFU VCAN (11748164_a_at) / Fold change /veh VCAN (11748164_a_at) / RFU JSRP1 (11732532_at) / Fold change /veh JSRP1 (11732532_at) / RFU KRTAP10-11 (11738290_x_at) / Fold change /veh KRTAP10-11 (11738290_x_at) / RFU MYO3A (11730013_a_at) / Fold change /veh MYO3A (11730013_a_at) / RFU EBF3 (11725865_a_at) / Fold change /veh EBF3 (11725865_a_at) / RFU CAMK2N1 (11719241_x_at) / Fold change /veh CAMK2N1 (11719241_x_at) / RFU C5orf56 (11738088_a_at) / Fold change /veh C5orf56 (11738088_a_at) / RFU OLFML3 (11715873_a_at) / Fold change /veh OLFML3 (11715873_a_at) / RFU LOC100653217 /// NTM (11731650_a_at) / Fold change /veh LOC100653217 /// NTM (11731650_a_at) / RFU MAPK11 (11762145_a_at) / Fold change /veh MAPK11 (11762145_a_at) / RFU FIZ1 (11724087_x_at) / Fold change /veh FIZ1 (11724087_x_at) / RFU OASL (11726364_x_at) / Fold change /veh OASL (11726364_x_at) / RFU SOX15 (11748057_x_at) / Fold change /veh SOX15 (11748057_x_at) / RFU CD79A (11719716_a_at) / Fold change /veh CD79A (11719716_a_at) / RFU HIST1H1D (11736915_at) / Fold change /veh HIST1H1D (11736915_at) / RFU CASKIN2 (11723855_a_at) / Fold change /veh CASKIN2 (11723855_a_at) / RFU LOC730098 (11760151_x_at) / Fold change /veh LOC730098 (11760151_x_at) / RFU OR4N2 (11742367_at) / Fold change /veh OR4N2 (11742367_at) / RFU PRRT2 (11749266_a_at) / Fold change /veh PRRT2 (11749266_a_at) / RFU SNX32 (11753110_a_at) / Fold change /veh SNX32 (11753110_a_at) / RFU CDHR5 (11726645_a_at) / Fold change /veh CDHR5 (11726645_a_at) / RFU RCAN1 (11760418_a_at) / Fold change /veh RCAN1 (11760418_a_at) / RFU FAM167A (11723789_a_at) / Fold change /veh FAM167A (11723789_a_at) / RFU FAM26E (11764081_at) / Fold change /veh FAM26E (11764081_at) / RFU ISYNA1 (11749810_s_at) / Fold change /veh ISYNA1 (11749810_s_at) / RFU ACY1 (11761880_at) / Fold change /veh ACY1 (11761880_at) / RFU 11764098_at / Fold change /veh 11764098_at / RFU SAMD14 (11745864_x_at) / Fold change /veh SAMD14 (11745864_x_at) / RFU NPB (11741838_a_at) / Fold change /veh NPB (11741838_a_at) / RFU TMPRSS6 (11731388_a_at) / Fold change /veh TMPRSS6 (11731388_a_at) / RFU KRTAP10-2 (11738614_at) / Fold change /veh KRTAP10-2 (11738614_at) / RFU ARHGAP8 /// PRR5-ARHGAP8 (11727945_x_at) / Fold change /veh ARHGAP8 /// PRR5-ARHGAP8 (11727945_x_at) / RFU KRTAP5-7 /// NADSYN1 (11734609_at) / Fold change /veh KRTAP5-7 /// NADSYN1 (11734609_at) / RFU RASL12 (11751679_a_at) / Fold change /veh RASL12 (11751679_a_at) / RFU CDKN2B (11736163_a_at) / Fold change /veh CDKN2B (11736163_a_at) / RFU PRF1 (11729649_at) / Fold change /veh PRF1 (11729649_at) / RFU, ZNF638 /// ZNF638-IT1 / Fold change vs veh, ZNF638 /// ZNF638-IT1 / RFU, PANK3 / Fold change vs veh, PANK3 / RFU, SH3YL1 / Fold change vs veh, SH3YL1 / RFU, ZEB2 / Fold change vs veh, ZEB2 / RFU, NRIP1 / Fold change vs veh, NRIP1 / RFU, PTTG1IP / Fold change vs veh, PTTG1IP / RFU, CAPN2 / Fold change vs veh, CAPN2 / RFU, MED14 / Fold change vs veh, MED14 / RFU, SNORA58 / Fold change vs veh, SNORA58 / RFU, C1orf63 / Fold change vs veh, C1orf63 / RFU, LRRFIP1 / Fold change vs veh, LRRFIP1 / RFU, NDUFAF7 / Fold change vs veh, NDUFAF7 / RFU, SLC12A2 / Fold change vs veh, SLC12A2 / RFU, IBTK / Fold change vs veh, IBTK / RFU, ESF1 / Fold change vs veh, ESF1 / Fold change vs veh, TMEM50B / RFU, TAOK1 / Fold change vs veh, TAOK1 / RFU, ACBD3 / Fold change vs veh, ACBD3 / RFU, TMA16 / Fold change vs veh, TMA16 / RFU, RWDD3 / Fold change vs veh, RWDD3 / RFU, BCAT1 / Fold change vs veh, BCAT1 / RFU, EDEM3 / Fold change vs veh, EDEM3 / RFU, TMEM33 / Fold change vs veh, TMEM33 / RFU, WDR75 / Fold change vs veh, WDR75 / RFU, AHCTF1 / Fold change vs veh, AHCTF1 / RFU, TFRC / Fold change vs veh, TFRC / RFU, ZDHHC17 / Fold change vs veh, ZDHHC17 / RFU, NOM1 / Fold change vs veh, NOM1 / RFU, ARL8B / Fold change vs veh, ARL8B / RFU, ZBTB11 / Fold change vs veh, ZBTB11 / RFU, TAMM41 / Fold change vs veh, TAMM41 / RFU, KIAA1704 /// LOC100996395 / Fold change vs veh, KIAA1704 /// LOC100996395 / RFU, ING1 / Fold change vs veh, ING1 / RFU, TRMT61B / Fold change vs veh, TRMT61B / RFU, FUBP3 / Fold change vs veh, FUBP3 / RFU, TP53 / Fold change vs veh, TP53 / RFU, TNKS2 / Fold change vs veh, TNKS2 / RFU, ZFP14 / Fold change vs veh, ZFP14 / RFU, ACTR2 / Fold change vs veh, ACTR2 / RFU, PPP3R1 / Fold change vs veh, PPP3R1 / RFU, PIK3R1 / Fold change vs veh, PIK3R1 / RFU, HNRNPA1 / Fold change vs veh, HNRNPA1 / RFU, RNF170 / Fold change vs veh, RNF170 / RFU, ZNF28 / Fold change vs veh, ZNF28 / RFU, RNGTT / Fold change vs veh, RNGTT / RFU, OGT / Fold change vs veh, OGT / RFU, BRD1 / Fold change vs veh, BRD1 / RFU, MARS / Fold change vs veh, MARS / RFU, ZNF655 / Fold change vs veh, ZNF655 / RFU, FAHD1 / Fold change vs veh, FAHD1 / RFU, BDP1 / Fold change vs veh, BDP1 / RFU, LRRCC1 / Fold change vs veh, LRRCC1 / RFU, ARID1A / Fold change vs veh, ARID1A / RFU, ZNF146 / Fold change vs veh, ZNF146 / RFU, ZNF330 / Fold change vs veh, ZNF330 / RFU, GPN3 / Fold change vs veh, GPN3 / RFU, C9orf123 / Fold change vs veh, C9orf123 / RFU, N4BP2L2 / Fold change vs veh, N4BP2L2 / RFU, ARFIP1 / Fold change vs veh, ARFIP1 / RFU, FAM179B / Fold change vs veh, FAM179B / RFU, BCL10 / Fold change vs veh, BCL10 / RFU, UHRF1BP1L / Fold change vs veh, UHRF1BP1L / RFU, BET1 / Fold change vs veh, BET1 / RFU, CNOT2 / Fold change vs veh, CNOT2 / RFU, ZNF268 / Fold change vs veh, ZNF268 / Fold change vs veh, ZNF507 / RFU, DGCR2 / Fold change vs veh, DGCR2 / RFU, WDSUB1 / Fold change vs veh, WDSUB1 / Fold change vs veh, HSP90B1 /// MIR3652 / RFU, ADSS / Fold change vs veh, ADSS / RFU, GK / Fold change vs veh, GK / RFU, ZNF148 / Fold change vs veh, ZNF148 / RFU, TAF9 / Fold change vs veh, TAF9 / RFU, SLC1A5 / Fold change vs veh, SLC1A5 / RFU, SLMO2 / Fold change vs veh, SLMO2 / RFU, ABCC4 / Fold change vs veh, ABCC4 / RFU, LOC101060439 /// RAP1B / Fold change vs veh, LOC101060439 /// RAP1B / RFU, RFX7 / Fold change vs veh, RFX7 / RFU, GTPBP10 / Fold change vs veh, GTPBP10 / RFU, CNEP1R1 / Fold change vs veh, CNEP1R1 / RFU, BIVM-ERCC5 /// ERCC5 / Fold change vs veh, BIVM-ERCC5 /// ERCC5 / RFU, ILF3 / Fold change vs veh, ILF3 / RFU 11762660_at / Fold change /veh 11762660_at / RFU VCAN (11757783_s_at) / Fold change /veh VCAN (11757783_s_at) / RFU DDX43 (11728927_at) / Fold change /veh DDX43 (11728927_at) / RFU KRT8 (11758188_x_at) / Fold change /veh KRT8 (11758188_x_at) / RFU NKD1 (11759106_at) / Fold change /veh NKD1 (11759106_at) / RFU SRD5A1 (11742802_a_at) / Fold change /veh SRD5A1 (11742802_a_at) / RFU TPSAB1 /// TPSB2 (11721975_s_at) / Fold change /veh TPSAB1 /// TPSB2 (11721975_s_at) / RFU GSTM3 (11746129_a_at) / Fold change /veh GSTM3 (11746129_a_at) / RFU IL23R (11737362_x_at) / Fold change /veh IL23R (11737362_x_at) / RFU TMEM51 (11727254_a_at) / Fold change /veh TMEM51 (11727254_a_at) / RFU PIWIL2 (11732686_x_at) / Fold change /veh PIWIL2 (11732686_x_at) / RFU ORM1 (11744905_x_at) / Fold change /veh ORM1 (11744905_x_at) / RFU CCDC152 (11743942_at) / Fold change /veh CCDC152 (11743942_at) / RFU ECM1 (11717891_a_at) / Fold change /veh ECM1 (11717891_a_at) / RFU IL23R (11748794_a_at) / Fold change /veh IL23R (11748794_a_at) / RFU TNFAIP8L3 (11732012_x_at) / Fold change /veh TNFAIP8L3 (11732012_x_at) / RFU MBOAT4 (11741988_at) / Fold change /veh MBOAT4 (11741988_at) / RFU 11764193_at / Fold change /veh 11764193_at / RFU TMEM53 (11763286_at) / Fold change /veh TMEM53 (11763286_at) / RFU MAGEB2 (11727129_at) / Fold change /veh MAGEB2 (11727129_at) / RFU TMEM200A (11744735_a_at) / Fold change /veh TMEM200A (11744735_a_at) / RFU CCDC152 (11751479_a_at) / Fold change /veh CCDC152 (11751479_a_at) / RFU FAM211A (11726209_a_at) / Fold change /veh FAM211A (11726209_a_at) / RFU RGS16 (11746705_a_at) / Fold change /veh RGS16 (11746705_a_at) / RFU VCAN (11755009_s_at) / Fold change /veh VCAN (11755009_s_at) / RFU RHOB (11743442_s_at) / Fold change /veh RHOB (11743442_s_at) / RFU RGS16 (11720943_a_at) / Fold change /veh RGS16 (11720943_a_at) / RFU RGS16 (11720944_at) / Fold change /veh RGS16 (11720944_at) / RFU, VPS4B / Fold change vs veh, VPS4B / RFU, CREB1 / Fold change vs veh, CREB1 / RFU, DNAJC13 / Fold change vs veh, DNAJC13 / RFU, GNAQ / Fold change vs veh, GNAQ / RFU, CDK5R1 / Fold change vs veh, CDK5R1 / RFU, ZRANB3 / Fold change vs veh, ZRANB3 / RFU, CUL4A / Fold change vs veh, CUL4A / RFU, CCNY / Fold change vs veh, CCNY / RFU, UFL1 / Fold change vs veh, UFL1 / RFU, COG3 / Fold change vs veh, COG3 / RFU, DIAPH2 / Fold change vs veh, DIAPH2 / RFU, SKA2 / Fold change vs veh, SKA2 / RFU, AFF3 / Fold change vs veh, AFF3 / RFU, LMF1 / Fold change vs veh, LMF1 / RFU, IPO11 / Fold change vs veh, IPO11 / RFU, DFFB / Fold change vs veh, DFFB / RFU, FOXP1 / Fold change vs veh, FOXP1 / RFU, CARD8 / Fold change vs veh, CARD8 / RFU, STRN3 / Fold change vs veh, STRN3 / RFU, ADK / Fold change vs veh, ADK / RFU, RASSF2 / Fold change vs veh, RASSF2 / RFU, WIPF1 / Fold change vs veh, WIPF1 / RFU, LARP1B / Fold change vs veh, LARP1B / RFU, RASA1 / Fold change vs veh, RASA1 / RFU, RB1 / Fold change vs veh, RB1 / RFU, PPFIA1 / Fold change vs veh, PPFIA1 / RFU, MAT2A / Fold change vs veh, MAT2A / RFU, CCT5 / Fold change vs veh, CCT5 / RFU, WDR92 / Fold change vs veh, WDR92 / RFU, CUX1 / Fold change vs veh, CUX1 / RFU, TTC7A / Fold change vs veh, TTC7A / RFU, TMEM135 / Fold change vs veh, TMEM135 / RFU, DEPTOR / Fold change vs veh, DEPTOR / RFU, CPM / Fold change vs veh, CPM / RFU, DNAJB6 / Fold change vs veh, DNAJB6 / RFU, CACNA2D3 / Fold change vs veh, CACNA2D3 / RFU, DTX4 / Fold change vs veh, DTX4 / RFU, TFCP2 / Fold change vs veh, TFCP2 / RFU, GMCL1 /// GMCL1P1 / Fold change vs veh, GMCL1 /// GMCL1P1 / RFU, AEBP2 / Fold change vs veh, AEBP2 / RFU, SNHG1 /// SNORD22 /// SNORD25 /// SNORD26 /// SNORD27 /// SNORD28 /// SNORD29 /// SNORD31 / Fold change vs veh, SNHG1 /// SNORD22 /// SNORD25 /// SNORD26 /// SNORD27 /// SNORD28 /// SNORD29 /// SNORD31 / Fold change (Aza/veh), C12orf56 (ProbeSet 11735607_a_at) / Fold change (ACY-1035/veh), C12orf56 (ProbeSet 11735607_a_at) / Fold change (Aza/veh), FGFR1OP (ProbeSet 11751329_s_at) / Fold change (ACY-1035/veh), FGFR1OP (ProbeSet 11751329_s_at) / Fold change (Aza/veh), VPS36 (ProbeSet 11739960_a_at) / Fold change (ACY-1035/veh), VPS36 (ProbeSet 11739960_a_at) / RFU SYPL1 (11715823_x_at) / Fold change /veh SYPL1 (11715823_x_at) / RFU IGFBP7 (11715501_s_at) / Fold change /veh IGFBP7 (11715501_s_at) / RFU REEP3 (11722064_at) / Fold change /veh REEP3 (11722064_at) / RFU IGLL1 (11728026_x_at) / Fold change /veh IGLL1 (11728026_x_at): dose or concentration left out as unconfirmed
# Details: MV-4-11 cells, 48 hours
smiles,measurement,value
Nc1ccc(-c2cccs2)cc1NC(=O)c1ccc2c(c1)cc(C1CC1)n2CCN1CCOCC1 [ACY-1035],RFU TMEM53 (11763286_at),16.39 RFU
